# Values of other authors, collected in patent US9125916B2, “Methods of treating hypertrophic cardiomyopathy” (Gilead Sciences, Inc., priority 2013, dated 2015).
# System: human cardiac tissue derived from patients with symptomatic HCM
# Conditions: Circulation 2013, 127 (5):575-584
compound,measurement,value
COc1ccccc1OCC(O)CN1CCN(CC(=O)Nc2c(C)cccc2C)CC1 (stereo not shown) [ranolazine],effect of inhibition of late INa on electrical and mechanical abnormalities characteristic of HCM,reverse multiple electrical and mechanical abnormalities characteristic of the disease
